Experimental data: PubChem BioAssay AID1919015 (Molecular Pharmacology Branch, DTP, NCI, 2023)

Test system: OVCAR-5 complex spheroids with HUVEC/MSC, viability, % test/control
Experiment: Anticancer human tumor OVCAR-5 cell line growth inhibition [AhR];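 further: spheroids exposed to compounds for 7 days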;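 on viability, T/C: 100% = DMSO vehicle control wells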
Details: for IC50: curve of first compound; for viability, T/C: stronger effect = lower value; active means viability on the fitted dose curve at most 10% of control; inactive means the rest
How it was run: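 Agents were dosed in half-log steps down from roughly clinical Cmax, or from 10 microM where Cmax was unknown, alone and with AhR antagonists. Read-out: percent test/control growth of tumor spheroids containing HUVEC and MSC stromal cells.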

[1] = second compound 0.1 µM, first compound 0.0316 µM
[2] = second compound 0.1 µM, first compound 0.1 µM
[3] = second compound 0.1 µM, first compound 0.316 µM
[4] = second compound 0.1 µM, first compound 1 µM
[5] = second compound 0.316 µM, first compound 0.0316 µM
[6] = second compound 0.316 µM, first compound 0.1 µM
[7] = second compound 0.316 µM, first compound 0.316 µM
[8] = second compound 0.316 µM, first compound 1 µM
[9] = second compound 1 µM, first compound 0.0316 µM
[10] = second compound 1 µM, first compound 0.1 µM
[11] = second compound 1 µM, first compound 0.316 µM
[12] = second compound 1 µM, first compound 1 µM
[13] = second compound 3.16 µM, first compound 0.0316 µM
[14] = second compound 3.16 µM, first compound 0.1 µM
[15] = second compound 3.16 µM, first compound 0.316 µM
[16] = second compound 3.16 µM, first compound 1 µM
[17] = second compound 10 µM, first compound 0.0316 µM
[18] = second compound 10 µM, first compound 0.1 µM
[19] = second compound 10 µM, first compound 0.316 µM
[20] = second compound 10 µM, first compound 1 µM
[21] = second compound 0.1 µM, first compound 3.16 µM
[22] = second compound 0.1 µM, first compound 10 µM
[23] = second compound 0.316 µM, first compound 3.16 µM
[24] = second compound 0.316 µM, first compound 10 µM
[25] = second compound 1 µM, first compound 3.16 µM
[26] = second compound 1 µM, first compound 10 µM
[27] = second compound 3.16 µM, first compound 3.16 µM
[28] = second compound 3.16 µM, first compound 10 µM
[29] = second compound 10 µM, first compound 3.16 µM
[30] = second compound 10 µM, first compound 10 µM
[31] = second compound 0.1 µM, first compound 0.00949 µM
[32] = second compound 0.1 µM, first compound 0.03 µM
[33] = second compound 0.1 µM, first compound 0.0949 µM
[34] = second compound 0.1 µM, first compound 0.3 µM
[35] = second compound 0.316 µM, first compound 0.00949 µM
[36] = second compound 0.316 µM, first compound 0.03 µM
[37] = second compound 0.316 µM, first compound 0.0949 µM
[38] = second compound 0.316 µM, first compound 0.3 µM
[39] = second compound 1 µM, first compound 0.00949 µM
[40] = second compound 1 µM, first compound 0.03 µM
[41] = second compound 1 µM, first compound 0.0949 µM
[42] = second compound 1 µM, first compound 0.3 µM
[43] = second compound 3.16 µM, first compound 0.00949 µM
[44] = second compound 3.16 µM, first compound 0.03 µM
[45] = second compound 3.16 µM, first compound 0.0949 µM
[46] = second compound 3.16 µM, first compound 0.3 µM
[47] = second compound 10 µM, first compound 0.00949 µM
[48] = second compound 10 µM, first compound 0.03 µM
[49] = second compound 10 µM, first compound 0.0949 µM
[50] = second compound 10 µM, first compound 0.3 µM

CC1COCCN1c1cc(-c2ccnn2C)c2ccnc(-c3ccn[nH]3)c2n1 (stereo not given) + Cc1cncc(-c2nc(NCCc3c[nH]c4ccccc34)c3ncn(C(C)C)c3n2)c1
183 nM: IC50 (second compound 3.16 µM)
< 3.16 nM: IC50 (second compound 10 µM)
265 nM: IC50 (second compound 1 µM)
282 nM: IC50 (second compound 0.316 µM)
active: viability, T/C [19] 6.62% | viability, T/C [20] 7.97%
273 nM: IC50 (second compound 0.1 µM)
inactive: viability, T/C (second compound 0.1 µM, first compound 0.00316 µM) 107% | viability, T/C (second compound 0.1 µM, first compound 0.01 µM) 103% | viability, T/C [1] 103% | viability, T/C [2] 83% | viability, T/C [3] 45.2% | viability, T/C [4] 32.9% | viability, T/C (second compound 0.316 µM, first compound 0.00316 µM) 106% | viability, T/C (second compound 0.316 µM, first compound 0.01 µM) 104% | viability, T/C [5] 105% | viability, T/C [6] 85% | viability, T/C [7] 46.3% | viability, T/C [8] 32.9% | viability, T/C (second compound 1 µM, first compound 0.00316 µM) 97.3% | viability, T/C (second compound 1 µM, first compound 0.01 µM) 99.2% | viability, T/C [9] 100% | viability, T/C [10] 78.2% | viability, T/C [11] 45.6% | viability, T/C [12] 33.9% | viability, T/C (second compound 3.16 µM, first compound 0.00316 µM) 80.8% | viability, T/C (second compound 3.16 µM, first compound 0.01 µM) 87.4% | viability, T/C [13] 84.2% | viability, T/C [14] 65.2% | viability, T/C [15] 36.5% | viability, T/C [16] 30.1% | viability, T/C (second compound 10 µM, first compound 0.00316 µM) 12.8% | viability, T/C (second compound 10 µM, first compound 0.01 µM) 12.8% | viability, T/C [17] 13.7% | viability, T/C [18] 10.6%

CC1COCCN1c1cc(C2(S(C)(=N)=O)CC2)nc(-c2ccnc3[nH]ccc23)n1 (stereo not given) + Cc1cncc(-c2nc(NCCc3c[nH]c4ccccc34)c3ncn(C(C)C)c3n2)c1
9580 nM: IC50 (second compound 1 µM)
inactive: viability, T/C [1] 99.4% | viability, T/C [2] 102% | viability, T/C [3] 106% | viability, T/C [4] 101% | viability, T/C [21] 92% | viability, T/C [22] 49.1% | viability, T/C [5] 99.6% | viability, T/C [6] 98.4% | viability, T/C [7] 99.3% | viability, T/C [8] 103% | viability, T/C [23] 90% | viability, T/C [24] 51.6% | viability, T/C [9] 92% | viability, T/C [10] 95.6% | viability, T/C [11] 94.9% | viability, T/C [12] 96.4% | viability, T/C [25] 86% | viability, T/C [26] 48.5% | viability, T/C [13] 74.5% | viability, T/C [14] 79.2% | viability, T/C [15] 80.5% | viability, T/C [16] 82.4% | viability, T/C [27] 62.6% | viability, T/C [28] 38.9% | viability, T/C [17] 19.6% | viability, T/C [18] 22.8% | viability, T/C [19] 22.9% | viability, T/C [20] 18.6% | viability, T/C [29] 12.7%
5840 nM: IC50 (second compound 3.16 µM)
9780 nM: IC50 (second compound 0.1 µM)
active: viability, T/C [30] 6.44%
> 10000 nM: IC50 (second compound 0.316 µM)
< 31.6 nM: IC50 (second compound 10 µM)

COc1ccc([C@@H](O)c2cc(-c3ncnc4cc(N5CCOCC5)ccc34)c(F)cc2Cl)nn1 + Cc1cncc(-c2nc(NCCc3c[nH]c4ccccc34)c3ncn(C(C)C)c3n2)c1
1660 nM: IC50 (second compound 3.16 µM)
3230 nM: IC50 (second compound 0.1 µM)
inactive: viability, T/C [1] 104% | viability, T/C [2] 104% | viability, T/C [3] 100% | viability, T/C [4] 80.9% | viability, T/C [21] 50.9% | viability, T/C [22] 28.8% | viability, T/C [5] 104% | viability, T/C [6] 103% | viability, T/C [7] 94% | viability, T/C [8] 80% | viability, T/C [23] 52% | viability, T/C [24] 29.1% | viability, T/C [9] 98.7% | viability, T/C [10] 101% | viability, T/C [11] 95% | viability, T/C [12] 74.9% | viability, T/C [25] 47.1% | viability, T/C [26] 28.8% | viability, T/C [13] 83.5% | viability, T/C [14] 83.3% | viability, T/C [15] 79.8% | viability, T/C [16] 59.9% | viability, T/C [27] 36.5% | viability, T/C [28] 20% | viability, T/C [17] 14.2% | viability, T/C [18] 13.6% | viability, T/C [19] 12.2%
2740 nM: IC50 (second compound 1 µM)
3560 nM: IC50 (second compound 0.316 µM)
< 31.6 nM: IC50 (second compound 10 µM)
active: viability, T/C [20] 7.42% | viability, T/C [29] 4.87% | viability, T/C [30] 3.46%

Nc1ncn(C2CC(O)C(CO)S2)c(=O)n1 (stereo not given) + Cc1cncc(-c2nc(NCCc3c[nH]c4ccccc34)c3ncn(C(C)C)c3n2)c1
> 300 nM: IC50 (second compound 0.1 µM) | IC50 (second compound 0.316 µM) | IC50 (second compound 1 µM) | IC50 (second compound 3.16 µM)
inactive: viability, T/C (second compound 0.1 µM, first compound 0.000949 µM) 99.8% | viability, T/C (second compound 0.1 µM, first compound 0.003 µM) 101% | viability, T/C [31] 102% | viability, T/C [32] 98.4% | viability, T/C [33] 85.9% | viability, T/C [34] 80.6% | viability, T/C (second compound 0.316 µM, first compound 0.000949 µM) 99.1% | viability, T/C (second compound 0.316 µM, first compound 0.003 µM) 101% | viability, T/C [35] 96.8% | viability, T/C [36] 93.1% | viability, T/C [37] 85.5% | viability, T/C [38] 78.2% | viability, T/C (second compound 1 µM, first compound 0.000949 µM) 87.8% | viability, T/C (second compound 1 µM, first compound 0.003 µM) 88.7% | viability, T/C [39] 89.7% | viability, T/C [40] 79.7% | viability, T/C [41] 75.4% | viability, T/C [42] 70.9% | viability, T/C (second compound 3.16 µM, first compound 0.000949 µM) 75.4% | viability, T/C (second compound 3.16 µM, first compound 0.003 µM) 76.3% | viability, T/C [43] 75.5% | viability, T/C [44] 79.6% | viability, T/C [45] 63.2% | viability, T/C [46] 62.7% | viability, T/C (second compound 10 µM, first compound 0.000949 µM) 18.3% | viability, T/C (second compound 10 µM, first compound 0.003 µM) 17.9% | viability, T/C [47] 18% | viability, T/C [48] 15.2% | viability, T/C [49] 14.3% | viability, T/C [50] 15.1%
< 0.949 nM: IC50 (second compound 10 µM)

O=C(C=Cn1cnc(-c2cc(C(F)(F)F)cc(C(F)(F)F)c2)n1)NNc1cnccn1 + Cc1cncc(-c2nc(NCCc3c[nH]c4ccccc34)c3ncn(C(C)C)c3n2)c1
< 9.49 nM: IC50 (second compound 10 µM)
1450 nM: IC50 (second compound 3.16 µM)
inactive: viability, T/C [31] 105% | viability, T/C [32] 108% | viability, T/C [33] 102% | viability, T/C [34] 87.4% | viability, T/C (second compound 0.1 µM, first compound 0.949 µM) 67.7% | viability, T/C (second compound 0.1 µM, first compound 3 µM) 48.4% | viability, T/C [35] 107% | viability, T/C [36] 109% | viability, T/C [37] 107% | viability, T/C [38] 86.4% | viability, T/C (second compound 0.316 µM, first compound 0.949 µM) 68.9% | viability, T/C (second compound 0.316 µM, first compound 3 µM) 49.8% | viability, T/C [39] 105% | viability, T/C [40] 108% | viability, T/C [41] 106% | viability, T/C [42] 89.4% | viability, T/C (second compound 1 µM, first compound 0.949 µM) 71% | viability, T/C (second compound 1 µM, first compound 3 µM) 45.3% | viability, T/C [43] 98.1% | viability, T/C [44] 99.5% | viability, T/C [45] 99.6% | viability, T/C [46] 79.8% | viability, T/C (second compound 3.16 µM, first compound 0.949 µM) 62% | viability, T/C (second compound 3.16 µM, first compound 3 µM) 31.8% | viability, T/C [47] 16.3% | viability, T/C [48] 15% | viability, T/C [49] 15.9% | viability, T/C [50] 16.4% | viability, T/C (second compound 10 µM, first compound 0.949 µM) 13.3% | viability, T/C (second compound 10 µM, first compound 3 µM) 12.6%
> 3000 nM: IC50 (second compound 0.316 µM)
2760 nM: IC50 (second compound 0.1 µM)
2430 nM: IC50 (second compound 1 µM)
